Converted amounts (≈) assume the structure as drawn.
Key:
[1] = Kinetic solubility of compound in aqueous buffer at pH 4 at 200 uM incubated for 24 hrs by UPLC UV analysis; type: physicochemical; conditions: read-out: Kinetic_solubility
[2] = Metabolic stability in Beagle dog liver microsomes assessed as clearance at 0.3 uM preincubated for 5 mins followed by NADPH addition measured upto 60 mins by LC-MS/MS analysis; type: ADME, Canis lupus familiaris, Microsome; conditions: read-out: CLH
Hepatitis B virus [3] = experiment: Antiviral activity against HBV genotype D in immuno-competent C57BL/6 mouse model of chronic HBV assessed as log10 reduction in HBsAg production at 3 mg/kg, po qd for 7 days measured 24 hrs post-last dose by EIA (reference value: 0.67); type: functional; conditions: time 8 day
Hepatitis B virus [4] = experiment: Antiviral activity against HBV genotype D in immuno-competent C57BL/6 mouse model of chronic HBV assessed as log10 reduction in HBsAg production at 10 mg/kg, po qd for 7 days measured 24 hrs post-last dose by EIA (reference value: 0.98); type: functional; conditions: time 8 day
[5] = Plasma protein binding in dog assessed as unbound fraction at 2 uM incubated for 6 hrs by equilibrium dialysis; type: ADME, cell-free, Canis lupus familiaris
[6] = Drug concentration in Sprague-Dawley rat liver at 5 mg/kg, po measured for 24 hrs by LC-MS/MS analysis; type: ADME, organism-based; conditions: read-out: Ct
[7] = Drug concentration in Sprague-Dawley rat lung at 5 mg/kg, po measured for 24 hrs by LC-MS/MS analysis; type: ADME, organism-based
[8] = Ratio of drug concentration in lung to plasma of Sprague-Dawley rat at 5 mg/kg, po measured for 24 hrs by LC-MS/MS analysis; type: ADME, organism-based
[9] = AUC (0 to 24 hrs) in CD-1 mouse at 0.2 mg/kg, po measured for 24 hrs by LC-MS/MS analysis; type: ADME, organism-based; conditions: in vivo
Cytochrome P450 2D6 = Cytochrome P450 2D6 (Homo sapiens, UniProt P10635); experiment: Inhibition of CYP2D6 in human liver microsomes using dextromethorphan as substrate preincubated for 30 min followed by NADPH addition measured after 12 mins by LC-MS/MS analysis; type: ADME, Microsome
Chain of Cytochrome P450 2D6 (P10635 whole entry): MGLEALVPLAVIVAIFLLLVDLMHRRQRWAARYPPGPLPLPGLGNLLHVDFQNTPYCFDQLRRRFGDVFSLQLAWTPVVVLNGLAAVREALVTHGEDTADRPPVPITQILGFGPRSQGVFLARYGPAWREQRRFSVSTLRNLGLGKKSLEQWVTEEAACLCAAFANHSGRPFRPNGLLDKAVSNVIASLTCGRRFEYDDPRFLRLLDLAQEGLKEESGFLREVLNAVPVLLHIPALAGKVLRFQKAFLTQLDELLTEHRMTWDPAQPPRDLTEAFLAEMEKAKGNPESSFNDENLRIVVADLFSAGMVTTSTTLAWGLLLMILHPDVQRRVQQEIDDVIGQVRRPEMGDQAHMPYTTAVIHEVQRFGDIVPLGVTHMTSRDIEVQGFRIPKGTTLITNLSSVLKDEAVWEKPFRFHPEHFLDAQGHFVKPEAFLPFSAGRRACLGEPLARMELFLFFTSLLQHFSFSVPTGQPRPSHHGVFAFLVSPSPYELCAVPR

[10] = Drug concentration in CD-1 mouse lung at 10 mg/kg, po measured for 24 hrs by LC-MS/MS analysis; type: ADME, organism-based; conditions: read-out: Ct
[11] = Drug concentration in Sprague-Dawley rat plasma at 5 mg/kg, po measured for 24 hrs by LC-MS/MS analysis; type: ADME, organism-based; conditions: read-out: Ct
[12] = Selectivity ratio of drug concentration in liver in CD-1 mouse at 0.2 mg/kg, po measured for 24 hrs to EC90 for antiviral activity against HBV infected in human HepG2.2.15 cells assessed as reduction in HBsAg level; type: ADME, organism-based; conditions: in vivo
Cytochrome P450 2C9 = Cytochrome P450 2C9 (Homo sapiens, UniProt P11712); experiment: Inhibition of CYP2C9 in human liver microsomes using diclofenac as substrate preincubated for 30 min followed by NADPH addition measured after 12 mins by LC-MS/MS analysis; type: ADME, Microsome
Chain of Cytochrome P450 2C9 (P11712 whole entry): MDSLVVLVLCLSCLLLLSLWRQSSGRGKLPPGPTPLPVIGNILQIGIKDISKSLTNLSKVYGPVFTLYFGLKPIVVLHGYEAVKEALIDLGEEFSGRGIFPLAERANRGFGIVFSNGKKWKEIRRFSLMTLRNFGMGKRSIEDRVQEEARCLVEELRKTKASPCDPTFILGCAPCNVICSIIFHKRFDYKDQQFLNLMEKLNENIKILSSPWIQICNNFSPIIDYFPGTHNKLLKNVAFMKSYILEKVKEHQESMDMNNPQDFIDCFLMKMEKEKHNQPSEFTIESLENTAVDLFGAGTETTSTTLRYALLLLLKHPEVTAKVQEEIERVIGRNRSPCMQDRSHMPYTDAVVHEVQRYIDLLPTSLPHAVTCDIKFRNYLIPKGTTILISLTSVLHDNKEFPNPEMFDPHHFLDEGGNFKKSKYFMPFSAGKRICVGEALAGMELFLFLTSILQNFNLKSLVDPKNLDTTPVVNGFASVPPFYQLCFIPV

[13] = Ratio of drug concentration in heart to plasma of Sprague-Dawley rat at 5 mg/kg, po measured for 24 hrs by LC-MS/MS analysis; type: ADME, organism-based
Cytochrome P450 3A4 [14] = target: T1, Cytochrome P450 3A4 (Homo sapiens, UniProt P08684); experiment: Inhibition of CYP3A4 in human liver microsomes using testosterone as substrate preincubated for 30 min followed by NADPH addition measured after 12 mins by LC-MS/MS analysis; type: ADME, Microsome
T1 sequence (P08684 whole entry): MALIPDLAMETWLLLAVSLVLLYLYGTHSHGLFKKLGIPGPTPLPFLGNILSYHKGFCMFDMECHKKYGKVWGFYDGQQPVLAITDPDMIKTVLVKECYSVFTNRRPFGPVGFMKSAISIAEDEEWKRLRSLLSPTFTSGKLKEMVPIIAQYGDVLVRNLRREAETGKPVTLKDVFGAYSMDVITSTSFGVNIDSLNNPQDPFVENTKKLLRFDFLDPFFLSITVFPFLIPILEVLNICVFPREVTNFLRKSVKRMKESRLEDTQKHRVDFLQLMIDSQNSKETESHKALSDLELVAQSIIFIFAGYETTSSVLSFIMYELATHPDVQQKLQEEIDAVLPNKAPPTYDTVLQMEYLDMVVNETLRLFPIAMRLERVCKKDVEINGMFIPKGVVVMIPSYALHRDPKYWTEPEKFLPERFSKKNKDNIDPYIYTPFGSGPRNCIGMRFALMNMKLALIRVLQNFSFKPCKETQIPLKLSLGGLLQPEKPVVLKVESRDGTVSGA

Hepatitis B virus [15] = experiment: Antiviral activity against HBV genotype D in immuno-competent C57BL/6 mouse model of chronic HBV assessed as log10 reduction in serum HBsAg production at 30 mg/kg, po qd for 14 days measured 24 hrs post-last dose by EIA relative to control; type: functional; conditions: time 15 day
Cytochrome P450 1A2 = target: T2, Cytochrome P450 1A2 (Homo sapiens, UniProt P05177); experiment: Inhibition of CYP1A2 in human liver microsomes using phenacetin as substrate preincubated for 30 min followed by NADPH addition measured after 12 mins by LC-MS/MS analysis; type: ADME, Microsome
T2 sequence (P05177 whole entry): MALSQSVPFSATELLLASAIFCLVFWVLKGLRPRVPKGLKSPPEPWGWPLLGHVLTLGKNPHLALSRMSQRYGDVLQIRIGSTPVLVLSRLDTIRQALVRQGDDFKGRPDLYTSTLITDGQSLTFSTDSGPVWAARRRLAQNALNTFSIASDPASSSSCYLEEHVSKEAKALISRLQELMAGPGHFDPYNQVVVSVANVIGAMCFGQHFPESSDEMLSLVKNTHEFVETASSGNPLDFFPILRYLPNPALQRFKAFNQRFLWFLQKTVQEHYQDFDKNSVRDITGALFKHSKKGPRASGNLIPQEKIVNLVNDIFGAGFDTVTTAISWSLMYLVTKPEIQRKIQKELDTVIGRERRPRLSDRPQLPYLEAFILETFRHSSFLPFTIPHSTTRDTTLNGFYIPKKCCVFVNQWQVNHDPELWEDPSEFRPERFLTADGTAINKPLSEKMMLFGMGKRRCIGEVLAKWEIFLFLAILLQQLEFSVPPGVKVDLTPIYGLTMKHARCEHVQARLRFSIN

[16] = Drug concentration in Sprague-Dawley rat heart at 5 mg/kg, po measured for 24 hrs by LC-MS/MS analysis; type: ADME, organism-based
[17] = Ratio of drug concentration in kidney to plasma of Sprague-Dawley rat at 5 mg/kg, po measured for 24 hrs by LC-MS/MS analysis; type: ADME, organism-based; conditions: kidney and plasma
[18] = Ratio of total drug concentration in liver to plasma in CD-1 mouse at 0.2 mg/kg, po measured for 24 hrs by LC-MS/MS analysis; type: ADME, organism-based; conditions: CD-1, mouse, liver and plasma
[19] = Ratio of drug concentration in lung to plasma of CD-1 mouse at 10 mg/kg, po measured for 24 hrs by LC-MS/MS analysis; type: ADME, organism-based; conditions: lung and plasma
Cytochrome P450 3A4 [20] = target: T1, Cytochrome P450 3A4; experiment: Inhibition of CYP3A4 in human liver microsomes using midazolam as substrate preincubated for 30 min followed by NADPH addition measured after 12 mins by LC-MS/MS analysis; type: ADME, Microsome
[21] = Selectivity ratio of drug concentration in liver in CD-1 mouse at 0.2 mg/kg, po measured for 12 hrs to EC90 for antiviral activity against HBV infected in human HepG2.2.15 cells assessed as reduction in HBsAg level; type: ADME, organism-based; conditions: in vivo
[22] = Ratio of drug concentration in kidney to plasma of CD-1 mouse at 10 mg/kg, po measured for 24 hrs by LC-MS/MS analysis; type: ADME, organism-based; conditions: kidney and plasma
Hepatitis B virus [23] = experiment: Antiviral activity against HBV genotype D in immuno-competent C57BL/6 mouse model of chronic HBV assessed as log10 reduction in serum HBsAg production at 0.3 mg/kg, po qd for 14 days measured 24 hrs post-last dose by EIA relative to control; type: functional; conditions: time 15 day
Cytochrome P450 2C19 = Cytochrome P450 2C19 (Homo sapiens, UniProt P33261); experiment: Inhibition of CYP2C19 in human liver microsomes using S-mephenytoin as substrate preincubated for 30 min followed by NADPH addition measured after 12 mins by LC-MS/MS analysis; type: ADME, Microsome
Chain of Cytochrome P450 2C19 (P33261 whole entry): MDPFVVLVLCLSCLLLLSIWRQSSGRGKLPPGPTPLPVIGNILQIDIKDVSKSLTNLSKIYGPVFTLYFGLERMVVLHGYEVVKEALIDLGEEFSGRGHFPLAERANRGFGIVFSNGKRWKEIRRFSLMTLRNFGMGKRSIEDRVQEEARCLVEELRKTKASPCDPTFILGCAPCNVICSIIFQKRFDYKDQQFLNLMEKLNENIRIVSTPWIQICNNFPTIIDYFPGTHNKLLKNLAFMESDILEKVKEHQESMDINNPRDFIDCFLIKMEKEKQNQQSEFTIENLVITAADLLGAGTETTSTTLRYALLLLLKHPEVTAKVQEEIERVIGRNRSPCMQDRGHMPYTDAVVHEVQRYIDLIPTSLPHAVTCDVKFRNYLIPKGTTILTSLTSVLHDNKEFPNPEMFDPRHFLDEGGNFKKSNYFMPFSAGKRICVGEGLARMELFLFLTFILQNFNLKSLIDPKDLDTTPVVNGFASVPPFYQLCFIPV

[24] = Drug concentration in CD-1 mouse kidney at 10 mg/kg, po measured for 24 hrs by LC-MS/MS analysis; type: ADME, organism-based; conditions: read-out: Ct
[25] = in vivo, po, 5 mg/kg, 24 h, BLD = below limit of detection

solubility kinetic at 24 h, 200 µM [1] [µM] | fraction unbound at 6 h, 2 µM [5] | concentration at 24 h [6] [ng/g] | AUC(0-t) at 24 h [9] [ng·h/mL] | IC50 (Cytochrome P450 2D6) [µM] | concentration at 24 h [10] [ng/g] | concentration at 24 h [11] [ng/g] | IC50 (Cytochrome P450 2C9) [µM] | IC50 (Cytochrome P450 3A4 [14]) [µM] | IC50 (Cytochrome P450 1A2) [µM] | Kp at 24 h [17] | Kp at 24 h [18] | Kp at 24 h [19] | IC50 (Cytochrome P450 3A4 [20]) [µM] | Structure (SMILES) | microsomal CLint at 0.3 µM [2] [µL/min/mg] | log(activity) (Hepatitis B virus [3]) | log(activity) (Hepatitis B virus [4]) | Ratio [12] | log(activity) (Hepatitis B virus [15]) | Ratio [21] | further results
43 (≈ 18.6 µg/mL) | 0.05 | 13900 | 148 | > 25 | 25 | 0.7 | 22 | > 25 | > 25 | 7.9 | 116 | 0.4 | > 25 | COc1cc(OC(F)F)c2nc3c(n2c1)C[C@@H](C(C)(C)C)c1cc(C(=O)O)c(=O)[nH]c1-3 | 6 | 0.8 | 0.67 | 40 | 0.94 | 166 | Ct [7, 25]: Bld; Ratio [8, 25]: Bld; Ratio [13, 25]: Bld; Ct [16, 25]: Bld; Kp at 24 h [22]: 1.3; log(activity) (Hepatitis B virus [23]): 0.13; IC50 (Cytochrome P450 2C19): 21 µM; concentration at 24 h [24]: 71 ng/g
39 (≈ 17.4 µg/mL) | 0.02 | 6140 | 273 | > 25 | 35 | 6.7 | 21 | > 25 | > 25 | 0.9 | 97 | 0.4 | > 25 | CC(C)(C)[C@@H]1Cc2c(nc3c(C(F)(F)F)cc(C4CC4)cn23)-c2[nH]c(=O)c(C(=O)O)cc21 | – | – | – | 51 | 1.35 | 572 | concentration at 24 h ([7]; Sprague-Dawley, lung, read-out: Ct): 5 ng/g; Kp at 24 h ([8]; Sprague-Dawley, lung and plasma): 0.7; Kp at 24 h ([13]; Sprague-Dawley, heart and plasma): 0.2; concentration at 24 h ([16]; Sprague-Dawley, heart, read-out: Ct): 1.3 ng/g; Kp at 24 h [22]: 0.3; log(activity) (Hepatitis B virus [23]): 0.35; IC50 (Cytochrome P450 2C19): 22 µM; concentration at 24 h [24]: 23 ng/g

Structure (SMILES) | solubility kinetic at 24 h, 200 µM [1] [µM] | fraction unbound at 6 h, 2 µM [5] | concentration at 24 h [6] [ng/g] | AUC(0-t) at 24 h [9] [ng·h/mL] | IC50 (Cytochrome P450 2D6) [µM] | concentration at 24 h [10] [ng/g] | concentration at 24 h [11] [ng/g] | IC50 (Cytochrome P450 2C9) [µM] | IC50 (Cytochrome P450 3A4 [14]) [µM] | IC50 (Cytochrome P450 1A2) [µM] | Kp at 24 h [17] | Kp at 24 h [18] | Kp at 24 h [19] | IC50 (Cytochrome P450 3A4 [20]) [µM] | microsomal CLint at 0.3 µM [2] [µL/min/mg] | log(activity) (Hepatitis B virus [3]) | log(activity) (Hepatitis B virus [4]) | Ratio [12] | log(activity) (Hepatitis B virus [15]) | Ratio [21] | further results
COCCCOc1cc2c(nc1OC)-c1cc(=O)c(C(=O)O)cn1[C@H](C(C)C)C2 | 190 (≈ 76.5 µg/mL) | 0.38 | – | – | – | – | – | – | – | – | – | – | – | – | 4 | 0.68 | 0.7 | – | – | – | –
